# From US20260199213A1, “PEPTIDE HAVING ACTIVITY OF IMPROVING STATE OF SKIN, AND USE THEREOF” (CAREGEN CO., LTD., priority 2022, published 2026)
# What was measured:
# fibronectin = experiment: Fibronectin expression by RT-PCR in NIH3T3 cells; assay type: cell-based
# Protocol: In this example, the aim was to confirm the effect of the peptide according to an example on improving endogenous skin aging, including improvement of wrinkles and enhancement of elasticity, etc., by evaluating the expression levels of collagen type 1 (Col1a1), fibronectin, elastin, and hyaluronic acid, which are known components of the dermis.
# Specifically, NIH3T3 cells were seeded in a 6-well plate at a density of 3×10^5 cells/well and cultured for 24 hours. Next, the cells were washed once with serum-free DMEM media, and 10 μM, 50 μM or 1000 μM of a peptide consisting of an amino acid sequence of SEQ ID NO: 1 was dispensed into 1 mL of the serum-free media, and cultured in a CO2 incubator at 37° C. for 24 hours. Next, the culture was washed twice with PBS, and RNA was isolated from the culture using easy blue (iNtRON, Cat. No.: 17061, Korea). Next, using an RT kit (Enzynomics, Cat. NO.: RT200, Korea), the isolated RNA was reverse transcribed to synthesize the respective cDNA. Next, using the synthesized 1 ug cDNA, primers for Colla1, fibronectin, or elastin, and a PCR kit (Enzynomics, Cat. No.: P581T, Korea), polymerase chain reaction (PCR) was performed. Meanwhile, in this example, an untreated group was used as a control group, and a group to which […] was added was used as a positive control group, the nucleotide sequences of the primers used in this example are shown in Table 2 below.
# In this example, the aim was to more specifically compare the effects of peptides according to an embodiment on improving intrinsic skin aging. To this end, a peptide consisting of an amino acid sequence of SEQ ID NO: 2, 3, or 4 having a sequence similar to a peptide according to an embodiment was set as a comparison group, and the expression levels of fibronectin and elastin were evaluated and compared in the same manner as in Example 2-1. […]
# MMP-1 [1] = experiment: MMP-1 expression increased by ultraviolet rays in NIH3T3 cells (western blot); assay type: cell-based; conditions: 6 J/cm^2 UV, 10 μM, 50 μM or 1000 μM peptide, 24 hours, FIG. 14
# From the text: (§1) It has been reported that MMP-1 (matrix metalloproteinase-1) promotes the decomposition of collagen and the reduction of elastin in the dermis layer, thereby creating wrinkles and causing a decrease in elasticity in the skin. Accordingly, in this example, the aim was to confirm the effect of the peptide according to an embodiment on improving extrinsic skin aging, including improving wrinkles and increasing elasticity, etc., by evaluating the change in the expression level of MMP-1 increased by ultraviolet irradiation.
# (§2) Specifically, NIH3T3 cells or HaCaT cells were seeded in a 6-well plate at a density of 5×10^5 cells/well and cultured for 24 hours. Next, the cells were washed once with serum-free DMEM media, and 10 μM, 50 μM or 1000 μM of the peptide consisting of the amino acid sequence of SEQ ID NO: 1 was dispensed into 1 mL of the serum-free media, and cultured in a CO2 incubator at 37° C. for 1 hour. Next, the above culture was transferred to an e-tube, mixed with 1 ml of PBS, and dispensed into a well plate. Next, using a UV irradiator (VILBER LOURMAT, Cat No.: 3102-BSU, France), 6 J/cm^2 ultraviolet rays were irradiated to NIH3T3 cells, and 20 mJ/cm^2 ultraviolet rays were irradiated to HaCaT cells. […] Next, MMP-1 was detected using […]. […]
# MMP-1 [2] = experiment: MMP-1 expression increased by ultraviolet rays in HaCaT cells (western blot); assay type: cell-based; conditions: 20 mJ/cm^2 UV, 10 μM, 50 μM or 1000 μM peptide, 24 hours, FIG. 15
# From the text: as §1, §2
# B16F10 cells = experiment: Melanin production in α-MSH-stimulated B16F10 cells; assay type: cell-based, mouse; conditions: 200 ng/ml α-MSH, 50 μM or 100 μM peptide, 72 hours, absorbance at 450 nm
# Protocol: B16F10 cells, a mouse melanoma cell line, were seeded at a density of 5×10^4 cells/well in a 6-well plate and cultured for 16 hours. Next, the culture medium was replaced with a medium including a 2% serum, and 200 ng/ml of α-MSH (α-melanocyte-stimulating hormones) was added to promote melanin production, in addition, 50 μM or 100 μM of each peptide consisting of the amino acid sequence of SEQ ID NO: 1 was added, and then cultured for 72 hours. Next, the cultured cells were dissolved with 1N NaOH and the absorbance at 450 nm was measured. Meanwhile, an untreated group (Con) was used as the control group, a group to which only α-MSH was added was used as the negative control group, a group to which the peptide consisting of the amino acid sequence of SEQ ID NO: 2 or 3 and α-MSH were added (50 μM, 100 μM) as the comparison group, and a group to which Arbutin (200 μM, 500 μM), known as a skin whitening agent, and α-MSH were added was used as the positive control group.
substance,measurement,setting,value
GPRGDP [SEQ ID NO: 1],expression of fibronectin,"fibronectin; 10 μM, 50 μM or 1000 μM peptide, 24 hours, PCR, vs untreated group",increased
same,expression of fibronectin (Example 2-2),"fibronectin; comparison experiment, FIG. 5 and FIG. 6",increased
same,fibronectin expression effect compared to the comparison group,"fibronectin; vs peptides of SEQ ID NO: 2, 3, or 4 (50 μM, 100 μM)",superior
same,expression of MMP-1 increased by ultraviolet irradiation,MMP-1 [1],reduced or restored
same,expression of MMP-1 increased by ultraviolet irradiation,MMP-1 [2],reduced or restored
same,melanin production,B16F10 cells,decreased
